Measurements: US7238213B2, “Cell-based assays employing voltage and calcium dyes” (priority 2001, dated 2007)
Values after ≈ are worked out from the molar mass of the structure shown. “Also recorded” adds a separate entry of the source. Where two headings read alike, the source gives them in different places.

How the values were obtained:
[1] = Solubility in water of dye quenchers; details: for solubility: water, Solubility in Water
[2] = molecular target: T1, GCGR (Homo sapiens, UniProt P47871); assay: CNG channel voltage dye assay with quencher dyes, cell line ASC0089 (GCGR); assay type: cell-based; details: for Cell response to glucagon in the presence of the quencher dye: ASC0089, HLB30602 5 μM, 1 h at room temperature, FIG. 19; for Effect of quencher on glucagon potency: compared with other quenchers and MDC dye kit, FIG. 21, 22
T1 construct: expressed in transfected cells
T1 sequence (P47871 26-477, species assumed): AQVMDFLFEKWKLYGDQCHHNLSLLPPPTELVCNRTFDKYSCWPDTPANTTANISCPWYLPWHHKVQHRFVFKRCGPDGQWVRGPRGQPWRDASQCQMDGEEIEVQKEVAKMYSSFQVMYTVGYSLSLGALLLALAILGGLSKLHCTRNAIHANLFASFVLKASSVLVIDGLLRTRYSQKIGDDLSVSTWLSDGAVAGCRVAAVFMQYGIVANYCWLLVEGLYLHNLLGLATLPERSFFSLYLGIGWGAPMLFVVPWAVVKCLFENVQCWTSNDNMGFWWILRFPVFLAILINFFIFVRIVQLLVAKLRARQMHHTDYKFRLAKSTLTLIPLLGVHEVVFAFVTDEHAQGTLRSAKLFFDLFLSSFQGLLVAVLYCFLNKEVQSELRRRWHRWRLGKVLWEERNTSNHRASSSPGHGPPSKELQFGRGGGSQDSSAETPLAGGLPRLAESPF

[3] = system: cell membranes; assay: Effect of EGTA in extracellular assay solution on baseline voltage dye fluorescence; assay type: cell-based; details: CNG channel without pore mutation
[4] = molecular target: T2, A2B (Homo sapiens, UniProt P29275); assay: CNG channel voltage dye assay with quencher dyes, cell line ASC0097 (A2B); assay type: cell-based; details: FIG. 20
T2 construct: endogenous in cells
T2 sequence (P29275 1-332): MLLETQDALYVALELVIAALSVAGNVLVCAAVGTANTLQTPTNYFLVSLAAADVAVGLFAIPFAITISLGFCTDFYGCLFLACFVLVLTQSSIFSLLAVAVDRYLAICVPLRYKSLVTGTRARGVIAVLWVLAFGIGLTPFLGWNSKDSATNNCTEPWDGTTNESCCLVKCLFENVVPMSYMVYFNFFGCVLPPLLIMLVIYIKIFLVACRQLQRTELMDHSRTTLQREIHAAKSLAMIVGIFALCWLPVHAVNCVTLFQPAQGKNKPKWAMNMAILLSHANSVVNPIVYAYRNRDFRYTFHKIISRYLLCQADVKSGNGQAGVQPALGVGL

[5] = molecular target: T3, DP (Homo sapiens, UniProt Q13258); assay: CNG channel voltage dye assay with quencher dyes, cell line ASC0093 (DP); assay type: cell-based
T3 construct: expressed in transfected cells; host or cells: cell line ASC0093 (CNG sensor line)
T3 sequence (Q13258 1-359): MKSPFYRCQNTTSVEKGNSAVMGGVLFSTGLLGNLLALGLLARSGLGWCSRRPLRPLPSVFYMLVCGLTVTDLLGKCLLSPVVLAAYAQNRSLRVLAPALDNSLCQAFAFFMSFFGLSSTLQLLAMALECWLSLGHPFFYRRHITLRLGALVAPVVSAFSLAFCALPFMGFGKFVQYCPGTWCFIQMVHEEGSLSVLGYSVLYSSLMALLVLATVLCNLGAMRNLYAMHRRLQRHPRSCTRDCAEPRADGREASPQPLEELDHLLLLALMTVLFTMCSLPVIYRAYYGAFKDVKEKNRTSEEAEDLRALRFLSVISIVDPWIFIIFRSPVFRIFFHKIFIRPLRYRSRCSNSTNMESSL

[6] = CNG channel voltage dye assay with quencher dyes, cell line ASC0097 (EP2); details: NY & H30602
[7] = molecular target: T4, VIP2R (Homo sapiens, UniProt P41587); assay: CNG channel voltage dye assay with quencher dyes, cell line ASC0145 (VIP2R); assay type: cell-based; details: ASC0145, compared with MDC dye kit R-8034, FIG. 23
T4 construct: expressed in transfected cells; host or cells: cell line ASC0145 (CNG sensor line)
T4 sequence (P41587 24-438): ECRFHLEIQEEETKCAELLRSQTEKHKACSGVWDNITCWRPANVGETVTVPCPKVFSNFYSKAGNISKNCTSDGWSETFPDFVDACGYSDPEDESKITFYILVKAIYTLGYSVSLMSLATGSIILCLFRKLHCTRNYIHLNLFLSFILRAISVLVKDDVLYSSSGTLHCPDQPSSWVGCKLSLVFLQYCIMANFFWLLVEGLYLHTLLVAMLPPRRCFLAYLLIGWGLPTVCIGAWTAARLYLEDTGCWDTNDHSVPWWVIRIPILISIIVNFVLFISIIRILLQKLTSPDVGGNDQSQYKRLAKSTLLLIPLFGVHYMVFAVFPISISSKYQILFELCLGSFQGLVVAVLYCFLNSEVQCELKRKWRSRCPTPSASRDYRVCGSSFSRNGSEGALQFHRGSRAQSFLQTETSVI

[8] = molecular target: T5, GIPR (Homo sapiens, UniProt P48546); assay: CNG channel voltage dye assay with quencher dyes, cell line ASC0133 (GIPR); assay type: cell-based; details: ASC0133, compared with MDC dye kit R-8034, FIG. 24
T5 construct: expressed in transfected cells; host or cells: cell line ASC0133 (CNG sensor line)
T5 sequence (P48546 22-466): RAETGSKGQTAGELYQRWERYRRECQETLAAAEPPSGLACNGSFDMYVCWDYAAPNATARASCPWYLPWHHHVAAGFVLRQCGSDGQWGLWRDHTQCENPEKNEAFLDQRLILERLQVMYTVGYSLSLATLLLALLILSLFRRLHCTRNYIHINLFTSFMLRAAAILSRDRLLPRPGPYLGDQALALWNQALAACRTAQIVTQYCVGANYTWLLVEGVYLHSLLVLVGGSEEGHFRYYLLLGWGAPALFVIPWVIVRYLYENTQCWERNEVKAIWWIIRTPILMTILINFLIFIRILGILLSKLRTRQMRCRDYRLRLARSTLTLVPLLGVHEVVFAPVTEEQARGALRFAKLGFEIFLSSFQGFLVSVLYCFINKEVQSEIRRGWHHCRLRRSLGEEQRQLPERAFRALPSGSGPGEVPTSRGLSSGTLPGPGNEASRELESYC

[9] = system: 20 ligand-receptor pairs; details: quenchers for fluorescent voltage dyes
[10] = molecular target: MC1R (Homo sapiens, UniProt Q01726); details: cell line ASC0179
Sequence of MC1R (Q01726 whole entry, species assumed): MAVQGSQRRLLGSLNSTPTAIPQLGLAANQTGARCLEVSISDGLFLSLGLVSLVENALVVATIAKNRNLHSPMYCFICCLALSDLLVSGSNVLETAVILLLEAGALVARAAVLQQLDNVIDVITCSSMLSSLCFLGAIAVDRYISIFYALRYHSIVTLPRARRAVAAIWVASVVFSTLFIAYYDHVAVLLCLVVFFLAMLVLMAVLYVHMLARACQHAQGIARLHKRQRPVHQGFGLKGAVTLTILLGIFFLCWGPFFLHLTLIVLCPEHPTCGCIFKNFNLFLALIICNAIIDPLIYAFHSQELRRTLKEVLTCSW

[11] = system: tyramine receptor; assay: Tyramine receptor activation, CNG channel assay with membrane potential dye; assay type: cell-based; details: HEK293 transient, FIG. 16
Protocol: In this example, activation of the tyramine receptor was examined using the CNG channel assay and compared with calcium fluorescence assays using Gα16 and Gαqs. Similar amounts of plasmids comprising CNG channel, Gα16 or Gαqs were used for transient expression in HEK293 cells also transiently expressing tyramine receptor. Calcium assays were performed following the protocol provided by Molecular Devices. For each concentration of tyramine, three recordings were made to obtain an average response in cells expressing Gα16, Gαqs and CNG channel respectively.

[12] = system: stably transformed cells expressing a CNG channel gene; assay: CNG channel endpoint assay, 384 well, FLEXstation; assay type: cell-based; details: 30 μM, 90 minutes after stimulation
Protocol: The CNG channel assay can also be used to perform endpoint assays. Decay of fluorescence responses results from desensitization of CNG channel was effectively removed by chelating extracellular calcium by EGTA and supplementing inhibitors of phosphodiesterase. Stably transformed cells expressing a CNG channel gene were seeded into 384 well plates and grown as described in previous examples. Forskolin was dissolved at a final concentration of 30 μM in Compound Buffer containing EGTA. Fluorescence intensity values of cells incubated with forskolin or with Compound Buffer only were read using FLEXstation (Molecular Devices) at different time points after forskolin stimulation.

[13] = CNG channel voltage dye assay with quencher dyes, cell line ASC0089 (Cyclase)

O=c1c(Br)cc2c(-c3ccccc3S(=O)(=O)O)c3cc(Br)c(O)c(O)c3oc-2c1O [Bromopyrogallol Red]
solubility [1]: 5 mg/mL (≈ 8.96 mM)

DIAZINE BLACK
Cell response to glucagon in the presence of the quencher dye [2]: abolished

O=C(O)CN(CCOCCOCCN(CC(=O)O)CC(=O)O)CC(=O)O [EGTA]
fluorescence increase over baseline [3]: about 40%

Cc1cc(-c2ccc(/N=N/c3c(S(=O)(=O)O)cc4cc(S(=O)(=O)O)cc(N)c4c3O)c(C)c2)ccc1/N=N/c1c(S(=O)(=O)O)cc2cc(S(=O)(=O)O)cc(N)c2c1O [HLB30702 (Trypan Blue), Trypan Blue]
Interference of quencher with response to glucagon stimulation ([2]; FIG. 21): interfered
Suitability of quencher for assay of adenosine receptor A2B responses to NECA [4]: suitable
Solubility in Water [1]: >20 mg/mL

CCCCC[C@H](O)/C=C/[C@H]1C(=O)C[C@H](O)[C@@H]1C/C=C\CCCC(=O)O [PGD2, Prostaglandin D2]
EC50 ([5]; MDC dye): 0.018 nM
maximal response Fmax/Fb ([5]; MDC dye): 4.4
EC50 ([5]; NY & H30602): 0.0078 nM
maximal response Fmax/Fb ([5]; NY & H30602): 4.2

O.O=C1c2ccccc2C(=O)c2c1cc(S(=O)(=O)[O-])c(O)c2O.[Na+] [Alizarin Red S monohydrate]
Solubility in Water [1]: 20 mg/mL

O=S1(=O)OC(c2cc(Br)c(O)c(Br)c2)(c2cc(Br)c(O)c(Br)c2)c2ccccc21 [Bromophenol Blue]
Interference of quencher with response to glucagon stimulation ([2]; FIG. 21): interfered
Suitability of quencher for assay of adenosine receptor A2B responses to NECA [4]: reduced NECA response without affecting NECA potency
Solubility in Water [1]: 30 mg/mL (≈ 44.8 mM)

CC1=CC(=C(c2ccc(N)c(C)c2)c2ccc(N)c(C)c2)C=CC1=N.Cl [New Fuchsin]
Solubility in Water [1]: 20 mg/mL

CCCCC[C@H](O)/C=C/[C@H]1[C@H](O)CC(=O)[C@@H]1CCCCCCC(=O)O [PGE1, Prostaglandin E1]
EC50 [6]: 40 nM
maximal response Fmax/Fb [6]: 5.3

Nitrazine Yellow
Effect of quencher on glucagon potency [2]: Glucagon potency increased
Effect of quencher on VIP potency [7]: left-shifted by about one order of magnitude; also recorded: increased using nitrazine yellow as a quencher by more than one order
Effect of quencher on GIP potency [8]: left-shifted by about one order of magnitude; also recorded: increased using nitrazine yellow as a quencher by one order
Solubility in Water [1]: 20 mg/mL
effect of quencher on responses of peptides and other small organic molecules [9]: little effect

CCN(CC)c1ccc2nc3ccc(N)cc3[n+](-c3ccccc3)c2c1.[Cl-] [Methylene Violet 3Rax]
Solubility in Water [1]: 10 mg/mL

CC(=O)Nc1ccc(S(=O)(=O)[O-])c2cc(S(=O)(=O)[O-])c(N=Nc3ccc(N=Nc4ccc(S(=O)(=O)[O-])cc4)c4ccc(S(=O)(=O)[O-])cc34)c(O)c12.[Na+].[Na+].[Na+].[Na+] [Brilliant Black BN]
Solubility in Water [1]: 30 mg/mL

α-MSH
maximal response Fmax/Fb ([10]; MDC dye): 5
maximal response Fmax/Fb ([10]; TB & H30602): 5.1

O=S(=O)([O-])c1cc(O)c2c(/N=N/c3ccc(Nc4ccccc4)c4c(S(=O)(=O)[O-])cccc34)cc(S(=O)(=O)[O-])cc2c1.[Na+].[Na+].[Na+] [Acid Blue 92]
Solubility in Water [1]: 40 mg/mL

NCCc1ccc(O)cc1 [tyramine]
tyramine receptor activation [11]: detectable

O=S(=O)([O-])c1cccc(N=Nc2ccc(N=Nc3ccc(Nc4ccccc4)c4c(S(=O)(=O)[O-])cccc34)c3ccccc23)c1.[Na+].[Na+] [Acid Blue 113]
Solubility in Water [1]: 40 mg/mL

C=C[C@@]1(C)CC(=O)[C@]2(O)[C@@]3(C)[C@@H](O)CCC(C)(C)[C@@H]3[C@H](O)[C@H](OC(C)=O)[C@@]2(C)O1 [forskolin]
increase of fluorescence intensity versus buffer control [12]: 2.8 fold
fluorescence intensity ([12]; n=192): 5.3±0.5×10^5 RFU
EC50 ([13]; MDC dye): 230 nM
maximal response Fmax/Fb ([13]; MDC dye): 5.3
EC50 ([13]; NY & H30602): 160 nM
maximal response Fmax/Fb ([13]; NY & H30602): 5.1

Cc1cc(-c2ccc(/N=N/c3c(S(=O)(=O)O)cc4cc(S(=O)(=O)O)cc(N)c4c3O)c(C)c2)ccc1/N=N/c1c(S(=O)(=O)O)cc2cc(S(=O)(=O)O)cc(N)c2c1O [Trypan Blue (Fluka), Trypan Blue]
Effect of quencher on maximal responses to glucagon ([2]; FIG. 21): did not inhibit maximal responses
Interference of quencher with response to glucagon stimulation ([2]; FIG. 21): interfered
Effect of quencher on glucagon potency ([2]; listed as Trypan blue): reduced glucagon potency by about one order
Effect of quencher on glucagon potency ([2]; listed as trypan blue): significantly reduced glucagon potency
Suitability of quencher for assay of adenosine receptor A2B responses to NECA [4]: suitable
solubility [1]: ~10 mg/mL (≈ 11.5 mM)

O=S1(=O)OC(c2cc(Cl)c(O)c(Br)c2)(c2cc(Cl)c(O)c(Br)c2)c2ccccc21 [Bromochlorophenol Blue]
Solubility in Water [1]: 20 mg/mL (≈ 34.4 mM)

Direct Violet 51
Solubility in Water [1]: 20 mg/mL

O=S(=O)([O-])c1cc(O)c(N=Nc2c(O)ccc3ccccc23)c2ccccc12.[Na+] [Palatine Chrome Black 6BN (Calcon)]
Solubility in Water [1]: 30 mg/mL

Sulfonazo II
Solubility in Water [1]: 40 mg/mL

CCN(CC)c1ccc(C(=C2C=CC(=[N+](CC)Cc3cccc(S(=O)(=O)[O-])c3)C=C2)c2ccc(N(CC)Cc3cccc(S(=O)(=O)[O-])c3)cc2)cc1.[Na+] [Acid Violet 17]
Cell response to glucagon in the presence of the quencher dye [2]: abolished
Solubility in Water [1]: 30 mg/mL

Nc1c(N=Nc2ccc([N+](=O)[O-])cc2)c(S(=O)(=O)[O-])cc2cc(S(=O)(=O)[O-])cc(O)c12.[Na+].[Na+] [Nitro Red]
Solubility in Water [1]: 40 mg/mL
effect of quencher on responses of peptides and other small organic molecules [9]: little effect

O=S1(=O)OC(c2ccc(O)c(Cl)c2)(c2ccc(O)c(Cl)c2)c2ccccc21 [Chlorophenol Red]
Solubility in Water [1]: 30 mg/mL (≈ 70.9 mM)
